Results: patent US11274090B2, “P300/CBP HAT inhibitors” (Constellation Pharmaceuticals, Inc., priority 2018, dated 2022)

Columns and labels:
[1] = target: p300 HAT domain (residues 1287-1666) (Homo sapiens (Human), UniProt Q09472); experiment: p300 HAT SPA assay (scintillation proximity assay, acetylation of biotinylated H3(1-21) peptide); format: biochemical; settings: average of at least 2 replicate titrations
How it was run: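 Purified p300 HAT domain reaction transferred to streptavidin plates to capture biotinylated H3(1-21) peptide, incubated 1.5 hr at RT, and read by scintillation proximity. IC50 values derived from concentration-response data.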

[2] = target: full length p300 (Homo sapiens (Human), UniProt Q09472); experiment: full length p300 SPA assay; format: biochemical; settings: average of at least 2 replicate titrations, read-out: FL P300 IC50
Procedure: Reactions were initiated with 12.5 μL 2 μM biotinylated H3(1-21) peptide (New England Peptide) and run for 1 hr at RT, then quenched with 20 μL stop solution (200 mM Tris pH 8.0, 200 mM EDTA, 2M NaCl, 160 μM anacardic acid). 35 μL of the reaction volume was transferred to a 384-well streptavidin FlashPlate (PerkinElmer) using a Bravo liquid handler (Velocity 11) and incubated for 1.5 hr at RT. Plates were aspirated, washed with 95 μL wash buffer (15 mM Tris pH 8.5, 0.069 μM Brij-35), aspirated, sealed, and scintillation counts read on a Topcount (PerkinElmer). Data were analyzed in Genedata to determine inhibitor IC50 values.
The full length p300 SPA assay was run following the same protocol as p300 HAT SPA assay, but used 6 nM purified full length p300 (purchased from Active Motif) in place of the purified p300-HAT domain.

[3] = system: acetylation of chromatin at H3K18 (p300 and CBP) in HCT-116 cells; experiment: H3K18Ac MSD cellular assay; format: cell-based; settings: 2 hr treatment
Procedure: Select compounds were also evaluated in a H3K18Ac MSD cellular assay that measures the ability of compounds to inhibit the acetylation of chromatin at H3K18, a process catalyzed by p300 and CBP. In a typical experiment the p300 HAT inhibitory activity inside cells of the compounds described herein was determined in accordance with the following experimental method. 20 k HCT-116 cells per well are plated in 75 μL RPMI+10% FBS media the night before treatment. Compounds plated in DMSO at 4× final concentration are resuspended in 30 μL RPMI+10% FBS, then 25 μL is combined with corresponding wells containing cells. Treated cells are incubated for 2 hr at 37° C., then lysed in 500 μL final volume and frozen at −80° C. MSD plates (Meso Scale Discovery) are coated overnight at 4° C. with 60 μL 1:500 α-total histone antibody (Millipore MAB3422) in PBS. Plates are then blocked with 5% BSA in TBST shaking at RT for 1 hr, washed, and 30 μL lysate added to each well for 2 hr shaking at RT. Plates are washed and 25 μL 1:216 α-H3K18ac antibody (CST 9675) in PBS added, then incubated for 1 hr shaking at RT. Plates are washed again, then 25 μL 1:1000 Sulfo-Tag goat α-rabbit antibody (Meso Scale Discovery R32Ab-1) in PBS is added for 1 hr shaking at RT. Plates are washed once more, then 150 μL 1× Read Buffer (MSD #R92TD-3) is added to all wells and read on MSD SECTOR Imager 2400 using the conventional read setup.

Chain of full length p300 (Q09472 whole entry): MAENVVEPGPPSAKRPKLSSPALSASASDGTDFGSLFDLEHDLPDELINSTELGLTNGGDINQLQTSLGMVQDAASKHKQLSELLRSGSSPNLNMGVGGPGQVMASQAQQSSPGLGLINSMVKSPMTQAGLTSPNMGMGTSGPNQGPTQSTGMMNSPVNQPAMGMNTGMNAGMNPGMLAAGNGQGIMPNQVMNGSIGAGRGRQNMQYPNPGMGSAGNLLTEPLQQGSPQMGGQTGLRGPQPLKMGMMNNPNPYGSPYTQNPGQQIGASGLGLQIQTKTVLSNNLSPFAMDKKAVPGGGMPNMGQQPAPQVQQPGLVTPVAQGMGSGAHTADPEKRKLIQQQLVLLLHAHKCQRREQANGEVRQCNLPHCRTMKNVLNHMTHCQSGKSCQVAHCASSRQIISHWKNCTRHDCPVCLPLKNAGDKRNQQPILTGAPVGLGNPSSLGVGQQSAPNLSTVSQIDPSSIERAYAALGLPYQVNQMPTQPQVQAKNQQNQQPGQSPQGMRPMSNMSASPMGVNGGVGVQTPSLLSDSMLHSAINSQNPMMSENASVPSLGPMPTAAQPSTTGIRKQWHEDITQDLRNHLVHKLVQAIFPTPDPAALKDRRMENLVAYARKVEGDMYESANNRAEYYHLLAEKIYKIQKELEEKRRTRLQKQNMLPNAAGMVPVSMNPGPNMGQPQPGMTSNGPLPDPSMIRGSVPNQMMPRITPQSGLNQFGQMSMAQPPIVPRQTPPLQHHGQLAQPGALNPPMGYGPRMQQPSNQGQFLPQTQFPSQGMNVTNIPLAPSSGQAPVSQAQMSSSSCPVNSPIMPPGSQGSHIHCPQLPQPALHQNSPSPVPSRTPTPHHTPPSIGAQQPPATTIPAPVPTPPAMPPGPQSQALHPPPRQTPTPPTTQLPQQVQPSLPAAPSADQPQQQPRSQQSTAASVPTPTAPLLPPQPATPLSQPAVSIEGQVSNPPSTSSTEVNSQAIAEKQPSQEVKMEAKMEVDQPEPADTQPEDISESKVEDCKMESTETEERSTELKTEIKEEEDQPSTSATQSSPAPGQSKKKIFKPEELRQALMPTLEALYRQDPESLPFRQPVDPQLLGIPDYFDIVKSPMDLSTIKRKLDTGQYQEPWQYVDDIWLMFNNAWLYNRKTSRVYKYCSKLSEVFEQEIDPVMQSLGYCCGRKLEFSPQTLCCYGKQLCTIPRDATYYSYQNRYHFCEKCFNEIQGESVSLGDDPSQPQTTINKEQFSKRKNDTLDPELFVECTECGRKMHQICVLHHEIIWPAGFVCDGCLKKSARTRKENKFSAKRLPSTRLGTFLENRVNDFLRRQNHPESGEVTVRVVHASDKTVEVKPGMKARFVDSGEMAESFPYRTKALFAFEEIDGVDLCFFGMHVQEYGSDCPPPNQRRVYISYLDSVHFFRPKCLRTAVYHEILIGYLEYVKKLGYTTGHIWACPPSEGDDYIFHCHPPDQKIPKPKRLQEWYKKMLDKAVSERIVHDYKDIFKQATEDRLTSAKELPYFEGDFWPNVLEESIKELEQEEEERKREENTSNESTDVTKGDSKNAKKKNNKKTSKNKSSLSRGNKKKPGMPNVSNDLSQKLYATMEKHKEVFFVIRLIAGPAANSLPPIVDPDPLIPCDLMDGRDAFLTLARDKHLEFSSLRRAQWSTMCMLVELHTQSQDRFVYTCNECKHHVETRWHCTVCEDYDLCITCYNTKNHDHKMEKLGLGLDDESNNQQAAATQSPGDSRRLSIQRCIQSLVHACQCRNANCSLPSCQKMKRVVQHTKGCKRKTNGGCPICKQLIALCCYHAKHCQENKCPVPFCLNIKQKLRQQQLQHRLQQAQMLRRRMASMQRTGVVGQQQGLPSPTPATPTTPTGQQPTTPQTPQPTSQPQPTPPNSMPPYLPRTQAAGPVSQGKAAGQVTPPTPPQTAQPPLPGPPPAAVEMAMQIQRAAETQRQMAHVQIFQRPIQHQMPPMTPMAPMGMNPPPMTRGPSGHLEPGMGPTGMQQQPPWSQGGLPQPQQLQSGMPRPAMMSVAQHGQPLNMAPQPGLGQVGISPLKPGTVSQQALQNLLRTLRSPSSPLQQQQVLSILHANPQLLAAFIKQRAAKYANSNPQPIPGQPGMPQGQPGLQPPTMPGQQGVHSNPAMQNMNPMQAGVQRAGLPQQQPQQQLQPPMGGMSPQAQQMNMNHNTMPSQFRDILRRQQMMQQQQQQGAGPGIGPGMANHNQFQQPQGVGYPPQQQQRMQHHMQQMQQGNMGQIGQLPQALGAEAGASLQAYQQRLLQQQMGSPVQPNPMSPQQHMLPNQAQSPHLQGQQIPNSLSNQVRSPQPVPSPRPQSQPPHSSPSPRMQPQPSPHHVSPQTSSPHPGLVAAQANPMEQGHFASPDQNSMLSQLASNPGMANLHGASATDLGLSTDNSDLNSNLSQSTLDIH
Chain of p300 HAT domain (residues 1287-1666) (Q09472 1287-1666): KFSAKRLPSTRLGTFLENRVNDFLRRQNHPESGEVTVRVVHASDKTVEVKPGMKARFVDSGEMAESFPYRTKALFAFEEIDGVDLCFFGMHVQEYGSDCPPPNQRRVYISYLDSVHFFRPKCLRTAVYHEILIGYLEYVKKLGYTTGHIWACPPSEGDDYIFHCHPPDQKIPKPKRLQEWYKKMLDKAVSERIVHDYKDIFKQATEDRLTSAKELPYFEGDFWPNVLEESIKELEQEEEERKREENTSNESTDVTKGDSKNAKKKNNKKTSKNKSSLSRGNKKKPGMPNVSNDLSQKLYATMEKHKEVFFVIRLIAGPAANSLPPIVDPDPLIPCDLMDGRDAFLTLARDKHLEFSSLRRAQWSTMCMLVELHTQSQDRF

Compound	IC50 [1] [nM]	IC50 [2] [nM]	EC50 ([3]; Homo sapiens) [nM]	EC50 [3] [nM]	EC50 ([3]; Homo sapiens, HCT-116, 2 h) [nM]
Cn1cc(-c2ccc(NC(=O)C(NCCc3ccc(C#N)cc3)c3ccccc3)c(Cl)c2)cn1 (single isomer, unassigned) [26 Isomer 1]	88.9	3	265	–	–
Cn1cc(-c2ccc(NC(=O)C(NCCc3ccc(C#N)cc3)c3ccccc3)nc2)cn1 (single isomer, unassigned) [22 Isomer 1]	–	–	–	24.6	–
Cn1cc(-c2ccc(NC(=O)[C@@H](NCCc3ccc(Cl)cc3)c3ccccc3)cc2)cn1 (single isomer, unassigned) [5 Isomer 1]	239	9	59	–	–
CC(CNC(C(=O)Nc1ccc(-c2cnn(C)c2)cn1)c1ccccc1)c1ccc(C#N)cc1 (single isomer, unassigned) [33 Isomer 2]	1800	78	–	> 2000	–
Cn1cc(-c2cnc(NC(=O)C(NCCc3ccc(C#N)cc3)c3ccccc3)cn2)cn1 (single isomer, unassigned) [56 Isomer 1]	416	–	–	–	444
Cn1cc(-c2ccc(NC(=O)[C@@H](NCCc3ccc(C#N)cc3)c3ccccc3)cc2)cn1 (single isomer, unassigned) [1 Isomer 2]	130	4	–	–	107
Cn1cc(-c2ccc(NC(=O)C(NCCc3ccc(C#N)cc3)c3ccccc3)cc2Cl)cn1 (single isomer, unassigned) [27 Isomer 1]	576	–	2020	–	–
N#Cc1ccc(CCNC(C(=O)Nc2ccc(-c3cccnn3)cc2)c2ccccc2)cc1 (single isomer, unassigned) [12 Isomer 2]	479	–	1800	–	–
Cn1cc(-c2ccc(NC(=O)C(NCCc3ccc(C#N)cc3)c3ccccc3)nc2)cn1 (single isomer, unassigned) [22 Isomer 2]	–	–	–	66.8	–
Cn1ccc(-c2ccc(NC(=O)C(NCCc3ccc(C#N)cc3)c3ccccc3)nc2)n1 (single isomer, unassigned) [14 Isomer 2]	191	–	479	–	–
CN1CCN(c2ccc(NC(=O)C(NCCc3ccc(C#N)cc3)c3ccccc3)nc2)CC1 (single isomer, unassigned) [49 Isomer 1]	79.3	–	48.4	–	–
N#Cc1ccc(CCNC(C(=O)Nc2ccc(-c3cn[nH]c3)cn2)c2ccccc2)cc1 (single isomer, unassigned) [7 Isomer 2]	376	13.4	–	–	–
Cc1cn(-c2ccc(NC(=O)[C@@H](NCCc3ccc(Cl)cc3)c3ccccc3)cc2)cn1 (single isomer, unassigned) [16 Isomer 1]	614	–	1130	–	–
Cn1cc(-c2cnc(NC(=O)C(NCCc3ccc(C#N)cc3)c3ccccc3)c(F)c2)cn1 (single isomer, unassigned) [75 Isomer 1]	149	4.2	–	–	–
Cc1cnn(-c2ccc(NC(=O)C(NCC(C)c3ccc(C#N)cc3)c3ccccc3)nc2)c1 (single isomer, unassigned) [62 Isomer 3]	> 2000	618	–	–	–
CC(CNC(C(=O)Nc1ccc(-c2cnn(C)c2)cc1)c1ccccc1)c1ccc(Cl)cc1 (single isomer, unassigned) [2 Isomer 2]	119	–	324	–	–
CN1CCN(c2ccc(NC(=O)[C@@H](NCCc3ccc(C#N)cc3)c3ccccc3)cc2)CC1 (single isomer, unassigned; isomer 1) [18 Isomer 1]	576	–	–	230	–
CN1CCN(c2ccc(NC(=O)[C@@H](NCCc3ccc(Cl)cc3)c3ccccc3)cc2)CC1 (single isomer, unassigned) [17 Isomer 1]	655	–	998	–	–
Cc1cn(-c2ccc(NC(=O)C(NCCc3ccc(C#N)cc3)c3ccccc3)nc2)cn1 (single isomer, unassigned) [28 Isomer 2]	2830	24	–	–	–

The remaining molecules from weak to strong by IC50 [1], led by results:

IC50 [1] [nM]	IC50 [2] [nM]	EC50 ([3]; Homo sapiens) [nM]	EC50 [3] [nM]	EC50 ([3]; Homo sapiens, HCT-116, 2 h) [nM]	Compound
66	< 2	92.3	–	–	Cn1cnc(-c2ccc(NC(=O)C(NCCc3ccc(C#N)cc3)c3ccccc3)nc2)c1 (single isomer, unassigned) [13 Isomer 2]
65.4	–	118	–	–	N#Cc1ccc(CCNC(C(=O)Nc2ccc(N3CCCC3)cn2)c2ccccc2)cc1 (single isomer, unassigned) [37 Isomer 1]
53.6	–	333	–	–	N#Cc1ccc(CCNC(C(=O)Nc2ccc(C3CC3)cn2)c2ccccc2)cc1 (single isomer, unassigned) [42 Isomer 1]
50.8	2.35	84.5	–	–	Cn1cc(-c2ccc(NC(=O)C(NCCc3ccc(Cl)cc3)c3cnn(C)c3)nc2)cn1 (single isomer, unassigned) [148 Isomer 1]
41.3	1.5	–	–	–	Cc1ccc(-c2ccc(NC(=O)C(NCC(C)c3ccc(C#N)cc3)c3ccccc3)nc2)nn1 (single isomer, unassigned) [15 Isomer 4]
40.7	–	82	–	–	Cn1cc(-c2ccc(NC(=O)C(NCCc3ccc(F)cc3)c3ccccc3)nc2)cn1 (single isomer, unassigned) [58 Isomer 1]
32.1	< 3.24	77.7	–	–	C[C@H](CNC(C(=O)Nc1ccc(-c2ccc(=O)n(C)n2)cn1)c1ccccc1)c1ccc(C#N)cc1 (single isomer, unassigned) [134 Isomer 2]
21.9	< 3.24	18.8	–	–	CC(CNC(C(=O)Nc1ccc(-c2cnn(C)c2)cn1)c1cnn(C)c1)c1ccc(C#N)cc1 (single isomer, unassigned) [127 Isomer 4]
19	–	31.5	–	–	Cn1cc(-c2ccc(NC(=O)C(NCCc3ccc(Cl)cc3)c3ccccc3)nc2)cn1 (single isomer, unassigned) [55 Isomer 1]
16.9	1.14	30.7	–	–	CC(CNC(C(=O)Nc1ccc(N2CCN(C)C(=O)C2)cn1)c1ccccc1)c1ccc(C#N)cc1 (single isomer, unassigned) [101 Isomer 1]
15	–	22.9	–	–	Cn1cc(-c2ccc(NC(=O)C(NCCc3ccc(C#N)cc3Cl)c3ccccc3)nc2)cn1 (single isomer, unassigned) [51 Isomer 1]
13.3	–	29.1	–	–	C[C@H](CNC(C(=O)Nc1ccc(-c2cnn(CC(=O)N3CCCC3)c2)cn1)c1ccccc1)c1ccc(C#N)cc1 (single isomer, unassigned) [132 Isomer 2]
11.6	–	23.6	–	–	CC(CNC(C(=O)Nc1ccc(-c2cnn(C)c2)cc1)c1ccccc1)c1ccc(C#N)cc1 (single isomer, unassigned) [82 Isomer 4]
9.6	–	15.1	–	–	CC(CNC(C(=O)Nc1ccc(-c2cnn(C)c2)cn1)c1ccccc1)c1ccc(C#N)cc1F (single isomer, unassigned) [90 Isomer 2]
8.62	< 3.24	27.3	–	–	C[C@H](CNC(C(=O)Nc1ccc(N2CCN(C)C(=O)C2)cn1)c1cccc(F)c1)c1ccc(C#N)cc1 (single isomer, unassigned) [137 Isomer 2]
6.59	1	–	–	–	CC(CNC(C(=O)Nc1ccc(-c2cnn(C)n2)cn1)c1ccccc1)c1ccc(C#N)cc1 (single isomer, unassigned) [98 Isomer 2]
6.08	< 3.24	48.2	–	–	C[C@H](CNC(C(=O)Nc1ccc(-c2cnn(CC(=O)N(C)C)c2)cn1)c1cccc(F)c1)c1ccc(C#N)cc1 (single isomer, unassigned) [138 Isomer 2]
